The target in assay [1] is human CB2 receptors (Homo sapiens (Human), UniProt P34972). As to the kind of experiment: functional cAMP assay, CHO cells expressing human CB2. The format is cell-based. The protocol: (§1) CHO cells expressing human CB1 or CB2 receptors are seeded 17-24 hours prior to the experiment 50.000 cells per well in a black 96 well plate with flat clear bottom (Corning Costar #3904) in DMEM (Invitrogen No. 31331), 1×HT supplement, with 10% fetal calf serum and incubated at 5% CO2 and 37° C. in a humidified incubator. The growth medium was exchanged with Krebs Ringer Bicarbonate buffer with 1 mM IBMX and incubated at 30° C. for 30 min. Compounds were added to a final assay volume of 100 μl and incubated for 30 min at 30° C. Using the cAMP-Nano-TRF detection kit the assay (Roche Diagnostics) was stopped by the addition of 50 μl lysis reagent (Tris, NaCl, 1.5% Triton X100, 2.5% NP40, 10% NaN3) and 50 μl detection solutions (20 μM mAb Alexa700-cAMP 1:1, and 48 μM Ruthenium-2-AHA-cAMP) and shaken for 2 h at room temperature. The time-resolved energy transfer is measured by a TRF reader (Evotec Technologies GmbH), equipped with a ND:YAG laser as excitation source. The plate is measured twice with the excitation at 355 nm and at the emission with a delay of 100 ns and a gate of 100 ns, total exposure time 10 s at 730 (bandwidth 30 nm) or 645 nm (bandwidth 75 nm), respectively. The FRET signal is calculated as follows: FRET=T730-Alexa730-P(T645-B645) with P=Ru730-B730/Ru645-B645, where T730 is the test well measured at 730 nM, T645 is the test well measured at 645 nm, B730 and B645 are the buffer controls at 730 nm and 645 nm, respectively. cAMP content is determined from the function of a standard curve spanning from 10 μM to 0.13 nM cAMP.
(§2) EC50 values were determined using Activity Base analysis (ID Business Solution, Limited). The EC50 values for a wide range of cannabinoid agonists generated from this assay were in agreement with the values published in the scientific literature.

The target in assay [2] is human CB1 receptors (Homo sapiens (Human), UniProt P21554). Briefly: functional cAMP assay, CHO cells expressing human CB1. It counts as cell-based. The protocol:
as §1, §2

The mark [3] stands for this setting: functional cAMP assay, CHO cells expressing human CB1; read-out: Human CB1 EC50.
Setting [4] is: Human CB1 EC50 (uM), functional cAMP assay, CHO cells expressing human CB1.
Setting [5] is: read-out: Human CB1 EC50; functional cAMP assay, CHO cells expressing human CB1.

Structures are written as SMILES. Like-named read-outs stand apart in the source and are kept apart here.

Sequence of human CB1 receptors (P21554 whole entry): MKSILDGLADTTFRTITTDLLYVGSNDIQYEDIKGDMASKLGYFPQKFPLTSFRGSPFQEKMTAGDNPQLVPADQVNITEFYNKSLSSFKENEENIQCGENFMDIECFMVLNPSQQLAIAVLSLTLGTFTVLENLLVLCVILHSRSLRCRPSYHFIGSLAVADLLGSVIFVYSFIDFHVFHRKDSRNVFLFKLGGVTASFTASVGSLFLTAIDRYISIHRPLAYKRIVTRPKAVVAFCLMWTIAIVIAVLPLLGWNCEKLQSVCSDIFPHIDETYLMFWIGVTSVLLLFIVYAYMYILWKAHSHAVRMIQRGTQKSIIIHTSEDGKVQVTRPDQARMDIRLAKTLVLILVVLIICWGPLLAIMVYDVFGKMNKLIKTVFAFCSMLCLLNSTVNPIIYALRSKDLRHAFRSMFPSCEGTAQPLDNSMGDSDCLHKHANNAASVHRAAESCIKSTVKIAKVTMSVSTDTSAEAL
Sequence of human CB2 receptors (P34972 whole entry): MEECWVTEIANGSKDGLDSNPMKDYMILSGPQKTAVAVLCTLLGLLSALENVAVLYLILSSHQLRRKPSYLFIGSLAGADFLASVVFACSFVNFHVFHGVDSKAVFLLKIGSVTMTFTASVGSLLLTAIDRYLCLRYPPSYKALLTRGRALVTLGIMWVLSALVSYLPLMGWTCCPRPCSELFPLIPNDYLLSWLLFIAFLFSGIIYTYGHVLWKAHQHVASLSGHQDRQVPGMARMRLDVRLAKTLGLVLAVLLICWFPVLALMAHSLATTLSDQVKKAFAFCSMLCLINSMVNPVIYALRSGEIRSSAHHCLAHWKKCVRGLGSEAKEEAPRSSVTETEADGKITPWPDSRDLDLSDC

Take `Cc1nnc(C(C)(CC2COC2)NC(=O)c2cc(OCC(F)(F)F)c(C3CC3)cn2)o1` (stereo not shown) [Example 191, 5-cyclopropyl-N-[2-(5-methyl-1,3,4-oxadiazol-2-yl)-1-(oxetan-3-yl)propan-2-yl]-4-(2,2,2-trifluoroethoxy)pyridine-2-carboxamide]: the values for the half-maximal effective concentration (EC50) in assay [1] (read-out: Human CB2 EC50) and in assay [2] (setting [3]) were 0.707 µM and above 10 µM, respectively.

On to `Cc1nc([C@](C)(CC2CC2)NC(=O)c2cc(OCC(F)(F)F)c(C3CC3)cn2)no1` (single isomer, unassigned; enantiomer b) [Example 67, 5-Cyclopropyl-4-(2,2,2-trifluoro-ethoxy)-pyridine-2-carboxylic acid [2-cyclopropyl-1-methyl-1-(5-methyl-[1,2,4]oxadiazol-3-yl)-ethyl]-amide (enantiomer B)], for which the EC50 in assay [1] (Human CB2 EC50 (uM)) is 0.0037 µM; in assay [2] (setting [4]), 5.28 µM.

In the case of `NC(=O)CC1(NC(=O)c2cc(OCC(F)(F)F)c(C3CC3)cn2)CS(=O)(=O)C1` [Example 160, N-[3-(2-amino-2-oxoethyl)-1,1-dioxothietan-3-yl]-5-cyclopropyl-4-(2,2,2-trifluoroethoxy)pyridine-2-carboxamide], the EC50 in assay [1] (read-out: Human CB2 EC50) was 0.0118 µM; in assay [2] (setting [3]) it was above 10 µM.

For the compound `CC(CC1CC1)(NC(=O)c1cc(OCC(F)(F)F)c(C2CC2)cn1)c1noc(N)n1` (single isomer, unassigned) [Example 207, N-[2-(5-amino-1,2,4-oxadiazol-3-yl)-1-cyclopropylpropan-2-yl]-5-cyclopropyl-4-(2,2,2-trifluoroethoxy)pyridine-2-carboxamide], the EC50 in assay [1] (Human CB2 EC50 (uM)) is 0.0083 µM; in assay [2] (setting [4]), above 10 µM.

With `Cc1nnc(C(C)(CC2CC2)NC(=O)c2cc(O[C@@H](C)C(F)(F)F)c(C3(F)COC3)cn2)o1` (stereo partly drawn) [Example 176, N-[1-cyclopropyl-2-(5-methyl-1,3,4-oxadiazol-2-yl)propan-2-yl]-5-(3-fluorooxetan-3-yl)-4-[(2S)-1,1,1-trifluoropropan-2-yl]oxypyridine-2-carboxamide], the results for the EC50 in assay [1] (read-out: Human CB2 EC50) and in assay [2] (setting [3]) were 0.443 µM and above 10 µM, respectively.

Turning to `Cc1nc(C(C)(CS(C)(=O)=O)NC(=O)c2cc(OCC(F)(F)F)c(C3(O)CCC3)cn2)no1` (stereo not shown) [Example 129, 5-(1-hydroxycyclobutyl)-N-[2-(5-methyl-1,2,4-oxadiazol-3-yl)-1-methylsulfonylpropan-2-yl]-4-(2,2,2-trifluoroethoxy)pyridine-2-carboxamide], the EC50 in assay [1] (read-out: Human CB2 EC50) is 1.09 µM; in assay [2] (setting [3]), above 10 µM.

On to `Cc1nc(C(C)(CC2CC2)NC(=O)c2cc(OC(C)CF)c(C3CC3)cn2)no1` (single isomer, unassigned) [Example 287, 5-cyclopropyl-N-(1-cyclopropyl-2-(5-methyl-1,2,4-oxadiazol-3-yl)propan-2-yl)-4-(1-fluoropropan-2-yloxy)picolinamide], for which the EC50 was 0.0014 µM in assay [1] (Human CB2 EC50 (uM)) and above 10 µM in assay [2] (setting [4]).

For `Cc1nc(C(NC(=O)c2cc(O[C@@H](C)C(F)(F)F)c(C3CC3)cn2)C2(C)COC2)no1` (stereo partly drawn) [Example 254, 5-cyclopropyl-N-[(5-methyl-1,2,4-oxadiazol-3-yl)-(3-methyloxetan-3-yl)methyl]-4-[(2S)-1,1,1-trifluoropropan-2-yl]oxypyridine-2-carboxamide], the results for the EC50 in assay [1] (read-out: Human CB2 EC50) and in assay [2] (setting [3]) were 0.0065 µM and above 10 µM, respectively.

On to `CC(C)C[C@](C)(CO)NC(=O)c1cc(OCC2CC2)c(Cl)cn1` [Example 28, (+)-5-Chloro-4-cyclopropylmethoxy-pyridine-2-carboxylic acid (1-hydroxymethyl-1,3-dimethyl-butyl)-amide], for which the figures for the half-maximal effective concentration (EC50) in assay [1] (read-out: Human CB2 EC50) and in assay [2] (setting [3]) were 0.0263 µM and above 10 µM, respectively.

Regarding `Cc1nc(C(C)(CO)NC(=O)c2cc(OCC(F)(F)F)c(C3CC3)cn2)no1` (single isomer, unassigned) [Example 141, 5-cyclopropyl-N-[1-hydroxy-2-(5-methyl-1,2,4-oxadiazol-3-yl)propan-2-yl]-4-(2,2,2-trifluoroethoxy)pyridine-2-carboxamide], the EC50 was 0.0968 µM in assay [1] (Human CB2 EC50 (uM)) and above 10 µM in assay [2] (setting [5]).

For `CC(C)(O)CNC(=O)c1cc(OCC2CC2)c(C2CC2)cn1` [Example 59, 5-Cyclopropyl-4-cyclopropylmethoxy-pyridine-2-carboxylic acid (2-hydroxy-2-methyl-propyl)-amide], the EC50 is 0.0816 µM in assay [1] (read-out: Human CB2 EC50) and above 10 µM in assay [2] (setting [3]).

As to `CC(CC1CC1)(NC(=O)c1cc(OCC(F)(F)F)c(C2CC2)cn1)c1noc(N)n1` (single isomer, unassigned) [Example 208, N-[2-(5-amino-1,2,4-oxadiazol-3-yl)-1-cyclopropylpropan-2-yl]-5-cyclopropyl-4-(2,2,2-trifluoroethoxy)pyridine-2-carboxamide], the results for the EC50 in assay [1] (Human CB2 EC50 (uM)) and in assay [2] (setting [5]) were 0.0092 µM and above 10 µM, respectively.

For `Cc1nc(C(C)(CC2CC2)NC(=O)c2cc(OCC(F)(F)F)c(C3CC3)cn2)no1` (single isomer, unassigned; enantiomer a) [Example 66, 5-Cyclopropyl-4-(2,2,2-trifluoro-ethoxy)-pyridine-2-carboxylic acid [2-cyclopropyl-1-methyl-1-(5-methyl-[1,2,4]oxadiazol-3-yl)-ethyl]-amide (enantiomer A)], the EC50 in assay [1] (Human CB2 EC50 (uM)) is 0.00595 µM; in assay [2] (setting [4]) it was above 10 µM.

For the compound `Cc1nc(C(C)(CC2CC2)NC(=O)c2cc(O[C@@H](C)C(F)(F)F)c(C3CC3)cn2)no1` (stereo partly drawn) [Example 100, 5-Cyclopropyl-4-((S)-2,2,2-trifluoro-1-methyl-ethoxy)-pyridine-2-carboxylic acid [2-cyclopropyl-1-methyl-1-(5-methyl-[1,2,4]oxadiazol-3-yl)-ethyl]-amide], the EC50 in assay [1] (read-out: Human CB2 EC50) is 0.0006 µM; in assay [2] (setting [3]) it was above 10 µM.

As to `Cc1nc(C(C)(NC(=O)c2cc(OCC(F)(F)F)c(C3(F)CCC3)cn2)C2CC2)no1` (single isomer, unassigned) [Example 307, N-(1-cyclopropyl-1-(5-methyl-1,2,4-oxadiazol-3-yl)ethyl)-5-(1-fluorocyclobutyl)-4-(2,2,2-trifluoroethoxy)picolinamide], the EC50 in assay [1] (Human CB2 EC50 (uM)) was determined as 0.0034 µM; in assay [2] (setting [4]), 0.032 µM.

`NC(=O)CC1(NC(=O)c2cc(OCC(F)(F)F)c(N3CC(F)(F)C3)cn2)COC1` [Example 223, N-[3-(2-amino-2-oxoethyl)oxetan-3-yl]-5-(3,3-difluoroazetidin-1-yl)-4-(2,2,2-trifluoroethoxy)pyridine-2-carboxamide]: the figures for the 50% effective concentration (EC50) in assay [1] (read-out: Human CB2 EC50) and in assay [2] (setting [3]) were 0.166 µM and above 10 µM, respectively.

In the case of `Cc1nc(C(C)(CC2CC2)NC(=O)c2cc(OCC(F)(F)F)c(C3(F)COC3)cn2)no1` (stereo not shown) [Example 131, N-[1-cyclopropyl-2-(5-methyl-1,2,4-oxadiazol-3-yl)propan-2-yl]-5-(3-fluorooxetan-3-yl)-4-(2,2,2-trifluoroethoxy)pyridine-2-carboxamide], the EC50 in assay [1] (read-out: Human CB2 EC50) was 0.0263 µM; in assay [2] (setting [3]), above 10 µM.

Turning to `CCC(CC)(NC(=O)c1cc(OCC2(C)COC2)c(C2CC2)cn1)C(=O)NCC(F)CCl` (stereo not shown) [Example 235, N-[3-[[3-chloro-2-fluoropropyl]carbamoyl]pentan-3-yl]-5-cyclopropyl-4-[(3-methyloxetan-3-yl)methoxy]pyridine-2-carboxamide], the results for the EC50 in assay [1] (read-out: Human CB2 EC50) and in assay [2] (setting [3]) were 0.293 µM and above 10 µM, respectively.

The compound `Cn1nnnc1C(NC(=O)c1cc(OCC(F)(F)F)c(C2CC2)cn1)C(C)(C)C` (stereo not shown) [Example 164, 5-cyclopropyl-N-[2,2-dimethyl-1-(1-methyltetrazol-5-yl)propyl]-4-(2,2,2-trifluoroethoxy)pyridine-2-carboxamide] had an EC50 in assay [1] (Human CB2 EC50 (uM)) of 0.0168 µM.
